“Also recorded” adds a separate entry of the source. Where two headings read alike, the source gives them in different places.
Legend:
BKCa channel [1] = biological target: BKCa channel (Mus musculus, UniProt Q08460); experiment: Single channel recordings of BKCa channel, outside-out and inside-out patches (cell-free configuration); format: biochemical; details: for inhibition of rottlerin channel activation: not shown
Description: Amplitude histograms are shown on the right. […] Ca^2+ was maintained at 0 (virtual; actual<20 nM) through dialysis using patch pipette. Since cellular compartments are excluded from patch and outside-out patch perfused locally with 0 Ca^2+, activation is Ca^2+-independent. […] Amplitude histograms are shown on the right.

[2] = tested on: Murine femoral arterial rings; experiment: Phenylephrine induced constriction of femoral arterial rings, wire myograph; format: cell-based
Description: (§1) Current was monitored with ramp protocol; holding potential −60 mV, with ramp from −80 mV to +150 mV over 500 ms. Extracellular application of NS-1619 (10 μM) increased current as previously described (Olesen, et al., Selective activation of Ca(2+)-dependent K+channels by novel benzimidazolone. Eur. J. Pharmacol., 1994. 251(1):53-9). […] Analysis performed using tail analysis with normalization as previously described (Xia, et al., Multiple regulatory sites in large-conductance calcium-activated potassium channels. Nature, 2002. 418(6900):880-4). (B) HEK cells co-expressing α and β1 subunits were studied in whole cell configuration with 5 mM EGTA (intra-pipette). […] (C) Human VSMC were studied in outside-out configuration, utilizing single channel recordings, recorded at +60 mV. […] Identification of the BKCa channel was determined by conductance and inhibition by iberiotoxin and TEA. […] Murine femoral arterial rings from were isolated and placed in a wire myograph. […] Figure representative of 4 similar experiments. Error bars are SEM; * p<0.001.

BKCa channel (mSlo) = biological target: T1, BKCa channel (mSlo) (Mus musculus, UniProt Q08460); experiment: Whole cell patch clamp of BKCa channel in stably transfected mSlo HEK293 cells; format: cell-based, murine
T1 construct: expressed in transfected cells
Description: (A-B) Representative current traces from whole cell patch with 5 mM EGTA in patch pipette. […] Voltage steps are shown at the right of each tracing; note different maximum voltage steps +200 mV (upper) vs. +120 mV (lower). […] Tail currents are in opposite direction due to final voltage step (+60 upper, −60 mV left). (C) G-V curves were constructed for indicated conditions utilizing tail analysis (Xia, et al., Multiple regulatory sites in large-conductance calcium-activated potassium channels. Nature, 2002. 418(6900):880-4). Solid lines were fitted with Boltzmann function (Origin 7.5). […] Representative of>30 similar experiments with rat and murine (pictured) s1o. (D-E) Stable mslo HEK293 cells were studied in whole cell configuration with pipette solution containing 5 mM EGTA (˜0 free Ca^2+).
as §1

BKCa channel [3] = biological target: T2, BKCa channel (Sus scrofa, UniProt O18866); details: cited from earlier work
T2 construct: host or cells: porcine coronary artery cells (endogenous)

maxi-K channels = maxi-K channels (Homo sapiens, UniProt Q12791); details: applied to the cytoplasmic side; cited from earlier work
[4] = not told; cited from earlier work
BKCa channels [5] = biological target: T3, BKCa channels (Homo sapiens, UniProt Q12791); details: cited from earlier work
3T3-L1 adipocytes = details: read-out: IC50, inhibition of insulin-induced glucose uptake; cited from earlier work
guinea pigs = details: purified rottlerin 10-20 mg/kg/day × 6 days; cited from earlier work
PKCδ [6] = biological target: T4, PKCδ (Homo sapiens, UniProt Q05655); details: rottlerin 20 μM; 0.1 mM (or 0.01 mM) ATP; phosphatidylserine; histone H1 or myelin basic protein substrate; cited from earlier work
PKA = PKA (Homo sapiens, UniProt P17612); details: read-out: IC50 for PKA; in vitro; cited from earlier work
PKCα = PKCα (Homo sapiens, UniProt P17252); details: rottlerin 20 μM; 0.1 mM (or 0.01 mM) ATP; phosphatidylserine; histone H1 or myelin basic protein substrate; cited from earlier work
PKCδ [7] = biological target: T4, PKCδ; details: read-out: IC50 for PKCδ; in vitro; cited from earlier work
[8] = tested on: mitochondria in intact cells; details: cited from earlier work
[9] = tested on: canine subarachnoid hemorrhage model; details: rottlerin 5 μM injected into the cistema magna; cited from earlier work
casein kinase II = casein kinase II (Homo sapiens, UniProt P68400); details: read-out: IC50 for casein kinase II; in vitro; cited from earlier work
other PKC isozymes = details: in vitro; cited from earlier work
BKCa channels [10] = biological target: T3, BKCa channels; experiment: Single channel recordings (outside-out) in human VSMC; format: cell-based; set-up: endogenous in cells; host or cells: human vascular smooth muscle cells (VSMC) grown in vitro; details: recorded at +60 mV
Description: as §1

[11] = biological target: T5, BKCa channel mSlo and β1 subunit (Mus musculus, UniProt Q08460); experiment: Whole cell recording in HEK cells co-expressing α and β1 subunits; format: cell-based, murine
T5 construct: expressed in transfected cells; host or cells: HEK293
Description: as §1

PKCδ [12] = biological target: T4, PKCδ; details: more recent data; cited from earlier work
[13] = biological target: T6, glutamate-aspartate transporter (GLAST) (Homo sapiens, UniProt P43003); details: cited from earlier work
T6 construct: host or cells: astrocytes (from the cited title only)

rats = details: purified rottlerin 10-20 mg/kg/day × 6 days; cited from earlier work
Ca^2+ sparks (RyR) = details: cited from earlier work
Cl^− channel = details: cited from earlier work
[14] = tested on: porcine coronary myocytes; details: 30 μM; through ryanodine receptor sensitive storage sites; cited from earlier work
Ca^2+ channel = details: cited from earlier work
hypertensive rat model = hypertensive rat model compared to controls; cited from earlier work
[15] = biological target: maxi-K potassium channels (Homo sapiens, UniProt Q12791); details: cited from earlier work
rat stroke models = details: cited from earlier work

T4 sequence (Q05655 whole entry): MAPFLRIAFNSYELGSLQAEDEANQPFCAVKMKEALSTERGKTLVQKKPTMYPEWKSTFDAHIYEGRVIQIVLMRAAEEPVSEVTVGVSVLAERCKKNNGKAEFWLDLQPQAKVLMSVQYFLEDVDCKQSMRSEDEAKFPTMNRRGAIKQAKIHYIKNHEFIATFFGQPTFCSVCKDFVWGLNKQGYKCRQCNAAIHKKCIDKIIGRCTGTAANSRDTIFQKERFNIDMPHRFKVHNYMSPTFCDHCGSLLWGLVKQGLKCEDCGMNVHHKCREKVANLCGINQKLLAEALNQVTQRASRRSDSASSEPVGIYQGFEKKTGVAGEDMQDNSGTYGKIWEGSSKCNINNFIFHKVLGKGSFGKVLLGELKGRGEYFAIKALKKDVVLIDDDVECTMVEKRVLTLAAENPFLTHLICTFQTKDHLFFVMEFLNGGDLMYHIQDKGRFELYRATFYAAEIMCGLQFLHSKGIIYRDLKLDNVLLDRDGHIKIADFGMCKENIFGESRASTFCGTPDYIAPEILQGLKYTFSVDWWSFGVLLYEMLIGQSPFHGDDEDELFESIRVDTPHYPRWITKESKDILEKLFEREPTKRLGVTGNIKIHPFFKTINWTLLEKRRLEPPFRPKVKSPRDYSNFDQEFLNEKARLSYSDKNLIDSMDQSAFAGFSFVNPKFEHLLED
T2 sequence (O18866 whole entry): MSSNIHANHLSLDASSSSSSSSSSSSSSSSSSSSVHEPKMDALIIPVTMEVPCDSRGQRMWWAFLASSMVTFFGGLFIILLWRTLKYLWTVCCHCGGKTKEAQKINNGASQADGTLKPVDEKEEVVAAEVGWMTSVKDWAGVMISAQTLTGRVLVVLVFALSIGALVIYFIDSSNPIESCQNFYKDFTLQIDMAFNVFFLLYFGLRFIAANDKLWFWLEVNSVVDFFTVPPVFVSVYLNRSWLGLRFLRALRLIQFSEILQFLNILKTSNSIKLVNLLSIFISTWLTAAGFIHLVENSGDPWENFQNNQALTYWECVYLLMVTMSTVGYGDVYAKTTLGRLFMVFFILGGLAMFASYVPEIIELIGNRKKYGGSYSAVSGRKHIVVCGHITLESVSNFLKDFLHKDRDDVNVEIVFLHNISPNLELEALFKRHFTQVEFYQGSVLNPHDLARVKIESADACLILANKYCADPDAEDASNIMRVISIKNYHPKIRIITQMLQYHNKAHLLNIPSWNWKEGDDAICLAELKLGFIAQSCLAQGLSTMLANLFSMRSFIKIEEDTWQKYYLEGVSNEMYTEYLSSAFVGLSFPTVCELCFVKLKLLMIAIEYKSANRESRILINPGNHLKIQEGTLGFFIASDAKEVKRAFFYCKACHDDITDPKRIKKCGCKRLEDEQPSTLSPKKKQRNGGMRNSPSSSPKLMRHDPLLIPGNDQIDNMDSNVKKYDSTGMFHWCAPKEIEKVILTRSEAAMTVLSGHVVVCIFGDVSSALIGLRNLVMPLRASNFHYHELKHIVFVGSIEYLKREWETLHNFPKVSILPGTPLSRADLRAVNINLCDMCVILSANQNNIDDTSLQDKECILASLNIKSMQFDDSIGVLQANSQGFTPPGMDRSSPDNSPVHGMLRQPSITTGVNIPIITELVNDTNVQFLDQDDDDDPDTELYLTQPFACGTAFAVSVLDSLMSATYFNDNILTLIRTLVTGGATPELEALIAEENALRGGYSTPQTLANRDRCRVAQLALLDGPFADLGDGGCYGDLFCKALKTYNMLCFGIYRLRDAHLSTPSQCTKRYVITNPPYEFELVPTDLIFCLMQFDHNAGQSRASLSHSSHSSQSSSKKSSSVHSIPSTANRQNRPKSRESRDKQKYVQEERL
T3 sequence (Q12791 whole entry): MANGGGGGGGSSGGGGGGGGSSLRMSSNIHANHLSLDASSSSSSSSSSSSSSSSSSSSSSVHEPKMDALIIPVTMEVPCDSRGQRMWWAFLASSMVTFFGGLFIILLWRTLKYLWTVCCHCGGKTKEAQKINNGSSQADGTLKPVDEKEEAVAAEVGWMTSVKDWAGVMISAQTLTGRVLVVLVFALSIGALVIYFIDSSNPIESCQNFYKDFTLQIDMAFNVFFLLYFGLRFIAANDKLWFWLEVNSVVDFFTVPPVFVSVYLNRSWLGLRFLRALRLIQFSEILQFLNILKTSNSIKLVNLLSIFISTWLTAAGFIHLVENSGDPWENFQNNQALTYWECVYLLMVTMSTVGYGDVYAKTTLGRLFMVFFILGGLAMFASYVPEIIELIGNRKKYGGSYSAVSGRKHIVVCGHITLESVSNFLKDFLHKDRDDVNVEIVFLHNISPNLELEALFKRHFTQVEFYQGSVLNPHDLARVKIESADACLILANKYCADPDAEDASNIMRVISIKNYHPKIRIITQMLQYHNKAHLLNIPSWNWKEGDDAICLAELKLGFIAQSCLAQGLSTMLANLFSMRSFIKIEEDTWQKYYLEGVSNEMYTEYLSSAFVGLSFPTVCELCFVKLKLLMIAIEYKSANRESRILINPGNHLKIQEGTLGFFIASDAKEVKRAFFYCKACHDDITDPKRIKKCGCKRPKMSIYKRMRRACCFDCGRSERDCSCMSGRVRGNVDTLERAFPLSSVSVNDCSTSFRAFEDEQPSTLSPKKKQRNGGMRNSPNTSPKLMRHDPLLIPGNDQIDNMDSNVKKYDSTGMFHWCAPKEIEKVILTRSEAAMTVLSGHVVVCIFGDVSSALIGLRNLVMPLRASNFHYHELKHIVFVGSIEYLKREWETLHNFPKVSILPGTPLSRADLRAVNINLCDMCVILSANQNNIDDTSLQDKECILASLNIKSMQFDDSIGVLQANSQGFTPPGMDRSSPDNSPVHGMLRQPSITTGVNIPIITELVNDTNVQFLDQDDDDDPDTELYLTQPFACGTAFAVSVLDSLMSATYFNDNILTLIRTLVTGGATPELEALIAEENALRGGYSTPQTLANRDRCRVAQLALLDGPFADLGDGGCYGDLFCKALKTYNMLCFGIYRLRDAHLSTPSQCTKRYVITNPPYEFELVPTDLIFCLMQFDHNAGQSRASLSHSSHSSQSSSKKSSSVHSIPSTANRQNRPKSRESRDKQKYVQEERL
T1 sequence (Q08460 whole entry): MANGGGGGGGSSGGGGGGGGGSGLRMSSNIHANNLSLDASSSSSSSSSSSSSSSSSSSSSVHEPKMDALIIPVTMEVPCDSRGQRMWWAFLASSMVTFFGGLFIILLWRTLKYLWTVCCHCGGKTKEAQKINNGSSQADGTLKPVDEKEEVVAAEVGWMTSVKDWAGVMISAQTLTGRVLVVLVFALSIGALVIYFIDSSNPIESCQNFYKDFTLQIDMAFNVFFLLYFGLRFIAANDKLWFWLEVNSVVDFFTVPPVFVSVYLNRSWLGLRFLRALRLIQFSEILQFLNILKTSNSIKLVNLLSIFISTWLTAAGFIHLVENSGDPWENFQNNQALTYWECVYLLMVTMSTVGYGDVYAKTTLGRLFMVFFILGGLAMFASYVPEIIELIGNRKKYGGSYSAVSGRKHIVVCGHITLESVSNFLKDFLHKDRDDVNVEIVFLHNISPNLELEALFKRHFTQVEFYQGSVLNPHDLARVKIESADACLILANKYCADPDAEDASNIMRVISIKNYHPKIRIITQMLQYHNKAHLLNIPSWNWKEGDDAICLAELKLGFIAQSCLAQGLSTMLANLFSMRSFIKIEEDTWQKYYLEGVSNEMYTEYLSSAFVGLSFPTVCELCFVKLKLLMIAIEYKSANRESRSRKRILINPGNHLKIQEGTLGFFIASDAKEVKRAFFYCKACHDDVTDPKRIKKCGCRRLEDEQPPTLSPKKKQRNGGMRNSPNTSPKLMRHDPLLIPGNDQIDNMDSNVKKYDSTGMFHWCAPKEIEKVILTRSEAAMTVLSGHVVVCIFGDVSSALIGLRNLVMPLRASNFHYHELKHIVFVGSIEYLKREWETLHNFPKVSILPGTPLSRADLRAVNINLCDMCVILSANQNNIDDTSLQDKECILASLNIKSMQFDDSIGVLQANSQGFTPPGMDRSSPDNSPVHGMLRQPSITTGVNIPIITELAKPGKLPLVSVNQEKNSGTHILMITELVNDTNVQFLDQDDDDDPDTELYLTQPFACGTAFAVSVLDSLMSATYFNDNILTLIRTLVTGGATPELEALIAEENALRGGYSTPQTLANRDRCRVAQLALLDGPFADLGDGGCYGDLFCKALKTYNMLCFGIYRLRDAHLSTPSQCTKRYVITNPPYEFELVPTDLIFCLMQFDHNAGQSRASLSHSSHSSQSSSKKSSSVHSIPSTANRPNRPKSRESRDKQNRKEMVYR
BKCa channel (Mus musculus, UniProt Q08460), sequence (Q08460 whole entry, the tested form may be a part): as the sequence (Q08460 whole entry) above
maxi-K channels, sequence (Q12791 whole entry): as the sequence (Q12791 whole entry) above
maxi-K potassium channels, sequence (Q12791 whole entry): as above
T5 sequence (Q08460 whole entry): as the sequence (Q08460 whole entry) above
T5 sequence (Q16558 whole entry partner): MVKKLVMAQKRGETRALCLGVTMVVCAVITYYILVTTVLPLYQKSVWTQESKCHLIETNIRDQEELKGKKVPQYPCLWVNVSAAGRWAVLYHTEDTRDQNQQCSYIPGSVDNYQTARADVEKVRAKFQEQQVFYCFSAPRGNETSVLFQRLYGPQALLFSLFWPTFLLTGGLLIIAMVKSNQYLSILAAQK

Which “inhibition of rottlerin channel activation” value (BKCa channel [1]) does the source give for `CC[N+](CC)(CC)CC` [TEA, reference compound] here?
Its value is “can be inhibited”.

What about the “inhibition of the rottlerin mediated effect on contraction” value ([2]; TEA) of the same compound?
The value was “inhibited”.

What about the “inhibition of rottlerin induced BKCa activation” value (BKCa channel (mSlo); TEA 5 mM) of the same compound?
Its value is “reversibly inhibited”.

With `O=C(Nc1cccc(C(F)(F)F)c1)Nc1cc(Cl)ccc1O` [NS1608] as the compound, how does the “effect at higher concentrations (bell shaped)” value (BKCa channel [3]; 50 μM) read?
Its value is “inhibitory effect”.

And the “concentration of maximum BKCa channel activation” value (BKCa channel [3]; porcine coronary artery cells)?
The value was 5 to 10 µM.

And the “minimum effective concentration, BKCa channel activation” value (BKCa channel [3]; porcine coronary artery cells)?
The value was 0.5 µM.

What does the source list for `C=C[C@]1(C)C=C2CC[C@@]3(O)C(C)(C)CC[C@H](O)[C@]3(C)C2CC1` (stereo partly shown) [Maxikdiol]?
concentration with significant effect on channel (maxi-K channels): 3 to 10 µM; threshold concentration for channel activation (maxi-K channels): 1 µM; membrane permeability [4]: limited

For `CC1(C)C[C@@H](O)[C@]2(C)CC[C@]3(C)C(=CC[C@@H]4[C@@]5(C)CC[C@H](O[C@@H]6O[C@H](C(=O)O)[C@@H](O)[C@H](O)[C@H]6O[C@@H]6O[C@H](CO)[C@H](O)[C@H](O)[C@H]6O)[C@](C)(CO)[C@@H]5CC[C@]43C)[C@@H]2C1` [soyasaponin III], which BKCa channel activation (BKCa channels [5]) is on record?
The BKCa channel activation was “activate BKCa channels”.

With `CC(=O)c1c(O)c(C)c(O)c(Cc2c(O)c3c(c(C(=O)/C=C/c4ccccc4)c2O)OC(C)(C)C=C3)c1O` [rottlerin, 5,7-dihydroxy-2,2-dimethyl-6-(2,4,6-trihydroxy-3-methyl-5-acetylbenzyl)-8-cinnamoyl-1,2-chromene] as the compound, how does the IC50 (3T3-L1 adipocytes) read?
Its IC50 is 10 µM.

What about the fertility rate (guinea pigs) of the same compound?
The fertility rate was “reduce the fertility rate”.

What about the “single channel activity, outside-out patch” value (BKCa channel [1]; rottlerin 0.5 μM local perfusion to extracellular side, 0 Ca2+ (actual <20 nM)) of the same compound?
The value was “activation of BKCa”.

And the “single channel activity, inside-out patch” value (BKCa channel [1]; rottlerin 0.5 μM local perfusion, 0 Ca2+)?
Its value is “activation of BKCa”.

What about the channel conductance (BKCa channel [1]; rottlerin 0.5 μM, amplitude histograms) of the same compound?
Its channel conductance is “does not significantly change”.

And the “effect on phenylephrine mediated contraction” value ([2]; rottlerin 1 μM)?
The value was “no significant effect”.

And the “reduction of phenylephrine mediated contraction” value ([2]; rottlerin 4 μM)?
The value was over 50%.

And the “PE induced constriction of the vessel” value ([2]; rottlerin (0.5 μM), p<0.001, representative of 4 experiments)?
Its value is “significantly inhibited”.

What about the “effect on PKCδ activity” value (PKCδ [6]) of the same compound?
The value was “virtually no effect”.

And the IC50 (PKA)?
The IC50 was 30 to 100 µM.

What about the “effect on PKCα activity” value (PKCα) of the same compound?
Its value is “virtually no effect”.

What about the IC50 (PKCδ [7]) of the same compound?
The IC50 was 3 to 6 µM.

And the uncoupling of mitochondria ([8]; 10 μM)?
The uncoupling of mitochondria was “can uncouple mitochondria”.

And the ATP levels ([8]; PKC independent)?
The ATP levels was “reduce ATP levels”.

And the cerebral vasospasm [9]?
Its cerebral vasospasm is “inhibited the initial phase of cerebral vasospasm”.

What about the toxic effects [9] of the same compound?
The toxic effects was “No toxic effects”.

What about the IC50 (casein kinase II) of the same compound?
Its IC50 is 30 to 100 µM.

And the “BKCa channel activity on extracellular exposure” value (BKCa channel (mSlo); 0.5 μM via local perfusion after 25 min intracellular dialysis)?
Its value is “significantly increased”.

And the “BKCa channel activity/current on intracellular dialysis” value (BKCa channel (mSlo); 20 μM rottlerin in patch pipette, 5 mM EGTA, over 25 min)?
Its value is “minimal effect; also recorded: only a relatively small effect”.

What about the “tail currents (slowing of deactivation)” value (BKCa channel (mSlo); after exposure to rottlerin (FIG. 4: 0.5 μM extracellular, 5 mM EGTA in pipette)) of the same compound?
Its value is “significantly prolonged; also recorded: markedly prolonged”.

And the “BKCa channel activation on local perfusion” value (BKCa channel (mSlo); extracellular, pipette 5 mM EGTA (~0 free Ca2+))?
The value was “activated channel”.

What about the “current after NS-1619 administration” value (BKCa channel (mSlo); rottlerin 0.5 μM added after NS-1619 (10 μM), 0 Ca2+) of the same compound?
The value was “incrementally increased current”.

What about the BKCa channel activity (BKCa channel (mSlo); rottlerin ≦100 nM, non-phosphorylated conditions, non-Ca2+ dependent, reversible) of the same compound?
The BKCa channel activity was “dramatically increased”.

And the IC50 (other PKC isozymes)?
Its IC50 is 30 to 100 µM.

And the Po (BKCa channels [10]; rottlerin (0.5 μM) by local perfusion)?
The Po was “significantly increased”.

What about the open dwell time (BKCa channels [10]; rottlerin (0.5 βM) by local perfusion) of the same compound?
Its open dwell time is “significantly increased”.

And the channel activity ([11]; HEK293 cells expressing both mSlo and β1 subunit)?
Its channel activity is “activated the channel”.

And the I-V curve ([11]; rottlerin 0.5 μM, whole cell, 5 mM EGTA intra-pipette)?
The I-V curve was “significantly shifted the I-V curve to the left”.

What about the “blocking PKCδ activity in vitro” value (PKCδ [12]) of the same compound?
Its value is “ineffective”.

And the “capacity of GLAST glutamate transporter” value [13]?
The value was “decrease the capacity”.

What about the fertility rate (rats) of the same compound?
Its fertility rate is “reduce the fertility rate”.

Which BKCa channel activation (BKCa channels [5]) does the source give for `C[C@@H]1O[C@@H](O[C@H]2[C@H](O[C@H]3[C@H](O[C@H]4CC[C@@]5(C)[C@@H](CC[C@]6(C)[C@@H]5CC=C5[C@@H]7CC(C)(C)C[C@@H](O)[C@]7(C)CC[C@]56C)[C@@]4(C)CO)O[C@H](C(=O)O)[C@@H](O)[C@@H]3O)O[C@H](CO)[C@H](O)[C@@H]2O)[C@H](O)[C@H](O)[C@H]1O` [soyasaponin I] here?
The BKCa channel activation was “activate BKCa channels”.

Which “reduction of dilation to forskolin” value (Ca^2+ sparks (RyR)) does the source give for Ryanodine here?
Its value is 80%.

Which Cl- channel (Cl^− channel) does the source give for `O=c1[nH]c2cc(C(F)(F)F)ccc2n1-c1cc(C(F)(F)F)ccc1O` [NS-1619] here?
Its Cl- channel is “inhibits”.

What about the “intracellular Ca2+ concentration” value [14] of the same compound?
The value was “increase intracellular Ca^2+ concentration”.

What about the “Ca2+ channel” value (Ca^2+ channel) of the same compound?
Its value is “inhibits”.

And the “peak K+ current” value (BKCa channel (mSlo))?
The value was “activated”.

And the “efficacy in mediating vascular relaxation” value (hypertensive rat model)?
The value was “diminished”.

With “iberiotoxin: inhibitor used to identify the BKCa channel (QFTDVDCSVSKECWSVCKDLFGVDRGKCMGKKCRCYQ; UniProt P24663 1-37, looked up) [reference compound]” as the compound, how does the “inhibition of rottlerin channel activation” value (BKCa channel [1]) read?
The value was “can be inhibited”.

For `COc1ccc(Cl)cc1[C@]1(F)C(=O)Nc2cc(C(F)(F)F)ccc21` [BMS-204352], which effect on current ([15]; 50 nM intracellular Ca2+) is on record?
The effect on current was “almost no effect”.

What about the effect on current ([15]; higher intracellular Ca2+ concentrations) of the same compound?
The effect on current was “progressively greater increases in current”.

What about the brain infarct size (rat stroke models) of the same compound?
Its brain infarct size is “reduction in brain infarct size”.

— patent US20090111868A1 (priority 2004, published 2009)
